Measurements taken from patent US20180271930A1, “METHOD FOR RAISING POULTRY” (priority 2015, published 2018).

Assays:
[1] = Examination 2-2: breeding performance at 40 days old after GSSG prestarter feed; assay type: in vivo, broiler chicks (Ross 308); conditions: 0.01% by mass GSSG feed for first 72 h, n = 12
Description: Thereafter, the composition was replaced by an ordinary feed composition of the same type and the chicks were raised until they became 40 days old. […] Two groups, which were a control group and a GSSG addition group (0.01% by mass) were set. In each group, 6 males and 6 females were tested. Chicks received at 0 day old were fed with a test feed composition (initial-phase feed composition) during 72 hours after the receipt. […] The body weight was measured, and the meat yield and feed conversion ratio were determined. As the initial-phase feed composition, the 0.01% by mass GSSG-containing feed composition used in Examination 1 was used in the GSSG addition group, and the feed composition (ME3,100 kcal/kg, CP21) free of GSSG used in Examination 1 was used for the control group. […] An ammonium salt was used as oxidized glutathione (GSSG). The GSSG contained 95.6% by mass of oxidized glutathione, and the content of reduced glutathione mixed therein was 0.1% by mass or less. […] The term “meat yield” refers to a proportion of meat excluding bones and fats with respect to the body weight. The meat yield can be determining by performing slaughtering and butchering, collecting meat alone, and weighing the collected meat.

[2] = system: Pax7; assay: Examination 3: Pax7 expression in skeletal muscle cells in differentiation medium; assay type: cell-based, broiler chicks (Ross 308); conditions: 100 μM GSSG in differentiation medium; 12 hours after start of culture; FIG. 2D, n=6
From the text: FIGS. 2A to 2D illustrate graphs showing the expression levels of genes related to skeletal muscle cell differentiation upon the addition of GSSG during the skeletal muscle cell differentiation period in Examination 3 (n=6). […] A relative value of the expression level of each factor is expressed as an average±standard deviation of values obtained by dividing the expression levels of each factor by the expression level of RPS9. Each different symbol denotes a significant difference in the […] multiple comparison test (P<0.05). Oxidized glutathione (GSSG) was added to a differentiation-promoting culture medium system of skeletal muscle cells collected from newly hatched broiler chicks (Ross 308, Ross Breeders Ltd.) (under culture conditions simulating the state of skeletal muscle cells of neonatal chicks), phosphorylation of signal factors was analyzed by Western blot, and the differentiation inhibition mechanism was investigated. Expression levels of MyoD, myostatin, IGF-I, and Pax7 as genes involved in myogenesis were determined. Pax7 is a muscle satellite cell marker. […] The expression level of Pax7 was determined by the method described in Examination 1 except that the primer set used herein was a primer set listed in the table below. […] The cells were recovered 0, 12, and 24 hours later, and the expression levels of genes involved in myogenesis were determined. […]

Substance: oxidized glutathione [GSSG]
- Meat yield ([1]; 40 days old): 42.1 ± 1.1 % by mass
- Weight ([1]; 40 days old): 2214 ± 79 g
- Feed conversion ratio (mass ratio) ([1]; until 40 days old): 1.52 ± 0.09
- expression of Pax7 vs control group [2]: significantly increased
